GI50 and TGI data for ten molecules are collected here from PubChem BioAssay (NCI).

Among the test systems are HL-60(TB) leukemia; SF-539 CNS; NCI-H522 lung; SF-268 CNS; NCI-H23 lung; SK-MEL-28 melanoma; SK-OV-3 ovarian; OVCAR-5 ovarian; 786-0 renal; K-562 leukemia.
Holding throughout (test): NCI-60 cell line screen, 48 h

The structures appear in SMILES notation. “And” between values parts separate entries of the source, which are not always exact repeats. Identical values can stand only once.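 Values below derive from 48-hour exposures of cells grown in 96-well plates, with endpoints linearly interpolated between the two concentrations bracketing the appropriate inhibition level. At the GI50, growth is halved. At the TGI there is no net growth.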

As to `CCCCCCCCCC(CCCC(O)CC(=O)O)OC1OC(COC2OC(C)C(OC(C)=O)C(O)C2O)C(O)C(O)C1OC1OC(CO)C(O)C(O)C1OC1OC(C)C(OC(=O)CC(C)C)C(O)C1O` (stereo not drawn), the GI50 in the assay with HL-60(TB) leukemia, with SF-539 CNS, in the assay on NCI-H522 lung, with SF-268 CNS, with NCI-H23 lung and in the assay on SK-MEL-28 melanoma was more than 35 µM each time. The GI50 in the assay on SK-OV-3 ovarian, in the assay on OVCAR-5 ovarian, with 786-0 renal and in the assay on K-562 leukemia was more than 35 µM throughout. The TGI with HL-60(TB) leukemia, in the assay on SF-539 CNS, with NCI-H522 lung, in the assay on SF-268 CNS, with NCI-H23 lung and in the assay with SK-MEL-28 melanoma was more than 35 µM in each case. Besides, the TGI with SK-OV-3 ovarian, in the assay on OVCAR-5 ovarian, in the assay with 786-0 renal and with K-562 leukemia was more than 35 µM throughout.
On to `CC(c1ccccc1)[C@@H](C(=O)Nc1ccc(I)cc1F)N1C(=O)N[C@H](c2ccc(OC[C@H](O)CO)cc2)C1=O` (stereo partly drawn), for which the GI50 with HL-60(TB) leukemia was 0.313 µM; in the assay with SF-539 CNS, 15.5 µM; in the assay with NCI-H522 lung, more than 17.8 µM; in the assay with SF-268 CNS it was 15.2 µM; in the assay on NCI-H23 lung, 0.902 µM; in the assay on SK-MEL-28 melanoma, 0.026 µM. Also, the GI50 in the assay on SK-OV-3 ovarian was more than 25 µM; with OVCAR-5 ovarian, 1.03 µM; in the assay on 786-0 renal, more than 14.4 µM; in the assay with K-562 leukemia it was 9.38 µM. The TGI in the assay with HL-60(TB) leukemia, in the assay on SF-539 CNS, in the assay on NCI-H522 lung, in the assay with SF-268 CNS, with NCI-H23 lung and in the assay with SK-MEL-28 melanoma was more than 25 µM each time. Further, the TGI in the assay on SK-OV-3 ovarian, in the assay with OVCAR-5 ovarian, with 786-0 renal and in the assay on K-562 leukemia was more than 25 µM throughout.
As for `CN(C)C(=O)NC(=S)N(C)C`, the TGI in the assay with HL-60(TB) leukemia, with SF-539 CNS, in the assay with NCI-H522 lung, in the assay on SF-268 CNS, in the assay with NCI-H23 lung and in the assay on SK-MEL-28 melanoma was more than 100 µM in each case. Further, the TGI with SK-OV-3 ovarian, in the assay with OVCAR-5 ovarian, in the assay with 786-0 renal and with K-562 leukemia was more than 100 µM throughout.
With `CCCCCCCCCCCCCCCCc1c(C(=O)OC)nc(NN)[nH]c1=O`, the TGI in the assay with HL-60(TB) leukemia, in the assay with SF-539 CNS, in the assay with NCI-H522 lung, in the assay on SF-268 CNS, in the assay on NCI-H23 lung and in the assay with SK-MEL-28 melanoma was more than 50 µM throughout. Moreover, the TGI with SK-OV-3 ovarian, in the assay with OVCAR-5 ovarian, in the assay with 786-0 renal and with K-562 leukemia was more than 50 µM in each case.
Take `CC1CCC(=O)C(C(O)CC2CC(=O)N(c3ccccc3)C(=O)C2)C1` (stereo not drawn): the TGI in the assay with HL-60(TB) leukemia, in the assay on SF-539 CNS, in the assay on NCI-H522 lung, in the assay on SF-268 CNS, in the assay with NCI-H23 lung and with SK-MEL-28 melanoma was more than 100 µM in each case. The TGI in the assay on SK-OV-3 ovarian, in the assay on OVCAR-5 ovarian, in the assay on 786-0 renal and in the assay on K-562 leukemia was more than 100 µM in each case.
In the case of `NC1=NC(=O)/C(=C/c2ccc3ncccc3c2)S1`, the GI50 in the assay on HL-60(TB) leukemia is more than 25 µM; in the assay with SF-539 CNS, more than 25 µM; in the assay on NCI-H522 lung, more than 18.4 µM; in the assay with SF-268 CNS it was more than 25 µM; in the assay with NCI-H23 lung it was more than 25 µM; in the assay with SK-MEL-28 melanoma, more than 25 µM. Besides, the GI50 in the assay on SK-OV-3 ovarian, with OVCAR-5 ovarian, in the assay with 786-0 renal and with K-562 leukemia was more than 25 µM throughout. The TGI in the assay with HL-60(TB) leukemia, in the assay on SF-539 CNS, in the assay on NCI-H522 lung, with SF-268 CNS, with NCI-H23 lung and in the assay on SK-MEL-28 melanoma was more than 25 µM throughout. In addition, the TGI with SK-OV-3 ovarian, in the assay on OVCAR-5 ovarian, in the assay on 786-0 renal and in the assay with K-562 leukemia was more than 25 µM each time.
Take `CCOC(=O)c1c(NC(=O)c2ccccc2)sc2c3c(ccc12)OCN(C)C3`: the GI50 with HL-60(TB) leukemia is 1.81 µM; in the assay on SF-539 CNS, 1.63 µM; in the assay with NCI-H522 lung, 1.66 µM; with SF-268 CNS it was 1.77 µM; in the assay with NCI-H23 lung, 1.78 µM; with SK-MEL-28 melanoma, 1.71 µM. The GI50 with SK-OV-3 ovarian was 2.16 µM; with OVCAR-5 ovarian, 1.71 µM; with 786-0 renal it was 1.79 µM; with K-562 leukemia it was 0.694 µM. Besides, the TGI in the assay on HL-60(TB) leukemia came out at 3.88 µM; in the assay with SF-539 CNS, 3.05 µM; in the assay with NCI-H522 lung, 3.62 µM; in the assay with SF-268 CNS, 3.59 µM; with NCI-H23 lung, 3.78 µM; in the assay with SK-MEL-28 melanoma it was 3.15 µM. The TGI in the assay with SK-OV-3 ovarian worked out at 4.79 µM; with OVCAR-5 ovarian, 3.16 µM; in the assay on 786-0 renal, 3.4 µM; in the assay with K-562 leukemia, 5.11 µM.
As to `COc1ccc2nc3cc([N+](=O)[O-])ccc3c(NNc3ccccc3)c2c1`, the TGI in the assay with HL-60(TB) leukemia was 59.8 µM and > 84 µM; in the assay with SF-539 CNS, 26.4 µM and 75 µM; in the assay on NCI-H522 lung, 18.5 µM and 50.9 µM; with SF-268 CNS, 30.8 µM and > 100 µM; in the assay with NCI-H23 lung, 28.1 µM and > 90.5 µM; in the assay on SK-MEL-28 melanoma it was 34.9 µM and > 100 µM. In addition, the TGI in the assay with SK-OV-3 ovarian is 35.3 µM and > 100 µM; with OVCAR-5 ovarian it was 47.2 µM and > 100 µM; with 786-0 renal, 40.4 µM and 44 µM; in the assay on K-562 leukemia it was 29.4 µM and > 100 µM. Further, the GI50 is 11.7 µM in the assay on SF-539 CNS; 2.4 µM in the assay on NCI-H522 lung; 7.35 µM in the assay with SF-268 CNS; 12.1 µM in the assay with NCI-H23 lung; 15.3 µM in the assay with SK-MEL-28 melanoma; 14.9 µM with SK-OV-3 ovarian. The GI50 was 14.9 µM in the assay on OVCAR-5 ovarian and 3.49 µM in the assay with K-562 leukemia.
On to `O=CNc1ccc(S(=O)(=O)c2ccc(NC=O)cc2)cc1`, for which the TGI in the assay with HL-60(TB) leukemia, in the assay on SF-539 CNS, in the assay with NCI-H522 lung, with SF-268 CNS, in the assay on NCI-H23 lung and in the assay with SK-MEL-28 melanoma was more than 100 µM each time. Also, the TGI with SK-OV-3 ovarian, in the assay with OVCAR-5 ovarian, with 786-0 renal and in the assay with K-562 leukemia was more than 100 µM throughout.
As to `O=c1ccc(=O)n(-c2ccccc2)[nH]1`, the TGI with HL-60(TB) leukemia, with SF-539 CNS, in the assay on NCI-H522 lung, with SF-268 CNS, in the assay on NCI-H23 lung and in the assay with SK-MEL-28 melanoma was more than 100 µM throughout. Also, the TGI in the assay on SK-OV-3 ovarian, in the assay on OVCAR-5 ovarian, in the assay on 786-0 renal and in the assay on K-562 leukemia was more than 100 µM each time.
